Columns and labels:
SW620 = test: CCK-8 proliferation, SW620; assay type: cell-based; details: Homo sapiens, SW-620; CCK-8; 96 hours; read-out: Inhibitory activity (IC50) on tumor cell proliferation, SW620
Method in brief: (§1)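 CCK-8 viability readout; IC50 from growth-inhibition curve fitting. Cells plated, dosed 24h later with a 10-point series, top 10µM, 5-fold steps. Culture at 37°C, 5% CO2.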

TMD8 = test: CCK-8 proliferation, TMD8; assay type: cell-based; details: Homo sapiens, TMD8; CCK-8; 72 hours; read-out: Inhibitory activity (IC50) on tumor cell proliferation, TMD8
Protocol: (§2) The tumor cells used herein were cultured in a cell culture medium listed in table A1 at 37°C in an incubator with 5% CO2. Prior to experimentation, all cell lines used were correctly identified by STR profiling, and tested negative for mycoplasma contamination using a mycoplasma detection kit through routine screenings. Table A1. Tumor cells and cell culture medium used in the present disclosure
(§3) IC50 values of the compounds of the present disclosure (including the compounds in Table 1, and compounds of examples) were measured using the Meilun Cell Counting Kit-8 kit from Dalian Meilun Biotech Co., Ltd. Assay details are as follows: tumor cells were seeded in a 96-well plate at a density listed in Table A2. After 24h, 100 µL of the inoculated cells were treated with 0.5µL of the compounds of the present disclosure (including the compounds in Tables 1 and 2, and compounds of examples) at 10 different successively decreasing concentrations (starting at the highest concentration of 10µM; 5-fold serial dilutions). After the cells were treated with the compounds of the present disclosure for a period of time, the cell viability detection reagent was added to the culture medium for cell viability assessment according to the instructions provided with the CCK-8 kit. […] The growth inhibition of the compounds of the present disclosure on cells was plotted by Prism Graphpad software, and the IC50 values of the compounds of the present disclosure were calculated therefrom. […] Seeding protocol and treatment time for tumor cells

THP-1 = test: CCK-8 proliferation, THP-1; assay type: cell-based; details: Homo sapiens, 72 hours, read-out: Inhibitory activity (IC50) on tumor cell proliferation, THP-1
Protocol: as §2, §3

CCRF-CEM = test: CCK-8 proliferation, CCRF-CEM; assay type: cell-based, Human; details: Homo sapiens, CCRF-CEM; CCK-8; 96 hours; read-out: Inhibitory activity (IC50) on tumor cell proliferation, CCRF-CEM
Method in brief: as §1

Jurkat = test: CCK-8 proliferation, Jurkat; assay type: cell-based, Human; details: Homo sapiens, Jurkat; CCK-8; 96 hours; read-out: Inhibitory activity (IC50) on tumor cell proliferation, Jurkat
Method in brief: as §1

LNcap = test: CCK-8 proliferation, LNcap; assay type: cell-based; details: Homo sapiens, LNCaP; CCK-8; 96 hours; read-out: Inhibitory activity (IC50) on tumor cell proliferation, Lncap
Protocol: as §2, §3

LS174T = test: CCK-8 proliferation, LS174T; assay type: cell-based; details: Homo sapiens, read-out: Inhibitory activity (IC50) on tumor cell proliferation, LS174T
Protocol: IC50 values of the compounds of the present disclosure (including the compounds in Table 1, and compounds of examples) were measured using the Meilun Cell Counting Kit-8 kit from Dalian Meilun Biotech Co., Ltd. Assay details are as follows: tumor cells were seeded in a 96-well plate at a density listed in Table A2. After 24h, 100 µL of the inoculated cells were treated with 0.5µL of the compounds of the present disclosure (including the compounds in Tables 1 and 2, and compounds of examples) at 10 different successively decreasing concentrations (starting at the highest concentration of 10µM; 5-fold serial dilutions). After the cells were treated with the compounds of the present disclosure for a period of time, the cell viability detection reagent was added to the culture medium for cell viability assessment according to the instructions provided with the CCK-8 kit. […] The growth inhibition of the compounds of the present disclosure on cells was plotted by Prism Graphpad software, and the IC50 values of the compounds of the present disclosure were calculated therefrom. [drawing 1519] Table A2. Seeding protocol and treatment time for tumor cells

H1975 = test: CCK-8 proliferation, NCI-H1975 (H1975); assay type: cell-based, Human; details: Homo sapiens, NCI-H1975; CCK-8; 96 hours; read-out: Inhibitory activity (IC50) on tumor cell proliferation, H1975
Method in brief: as §1

MM.1R = test: CCK-8 proliferation, MM.1R; assay type: cell-based; details: CCK-8, 72 hours, read-out: Inhibitory activity (IC50) on tumor cell proliferation, MM.1R
Method in brief: as §1

MV-4-11 = test: CCK-8 proliferation, MV-4-11; assay type: cell-based, Human; details: Homo sapiens, MV4-11; CCK-8; 72 or 96 hours; read-out: Inhibitory activity (IC50) on tumor cell proliferation, MV-4-11
Method in brief: as §1

SR = test: CCK-8 proliferation, SR; assay type: cell-based, Human; details: Homo sapiens, SR; CCK-8; 72 hours; read-out: Inhibitory activity (IC50) on tumor cell proliferation, SR
Method in brief: as §1

CAL-62 = test: CCK-8 proliferation, CAL-62; assay type: cell-based; details: Homo sapiens, 72 hours, read-out: Inhibitory activity (IC50) on tumor cell proliferation, CAL-62
Protocol: as §2, §3

FAK = target: T1, FAK (Homo sapiens, UniProt Q05397); test: Western blot degradation of FAK; assay type: cell-based; details: Table D7
T1 construct: evaluate the effects of the compounds of the present disclosure on the expression of target proteins in cells; endogenous in cells
T1 sequence (Q05397 whole entry, species assumed): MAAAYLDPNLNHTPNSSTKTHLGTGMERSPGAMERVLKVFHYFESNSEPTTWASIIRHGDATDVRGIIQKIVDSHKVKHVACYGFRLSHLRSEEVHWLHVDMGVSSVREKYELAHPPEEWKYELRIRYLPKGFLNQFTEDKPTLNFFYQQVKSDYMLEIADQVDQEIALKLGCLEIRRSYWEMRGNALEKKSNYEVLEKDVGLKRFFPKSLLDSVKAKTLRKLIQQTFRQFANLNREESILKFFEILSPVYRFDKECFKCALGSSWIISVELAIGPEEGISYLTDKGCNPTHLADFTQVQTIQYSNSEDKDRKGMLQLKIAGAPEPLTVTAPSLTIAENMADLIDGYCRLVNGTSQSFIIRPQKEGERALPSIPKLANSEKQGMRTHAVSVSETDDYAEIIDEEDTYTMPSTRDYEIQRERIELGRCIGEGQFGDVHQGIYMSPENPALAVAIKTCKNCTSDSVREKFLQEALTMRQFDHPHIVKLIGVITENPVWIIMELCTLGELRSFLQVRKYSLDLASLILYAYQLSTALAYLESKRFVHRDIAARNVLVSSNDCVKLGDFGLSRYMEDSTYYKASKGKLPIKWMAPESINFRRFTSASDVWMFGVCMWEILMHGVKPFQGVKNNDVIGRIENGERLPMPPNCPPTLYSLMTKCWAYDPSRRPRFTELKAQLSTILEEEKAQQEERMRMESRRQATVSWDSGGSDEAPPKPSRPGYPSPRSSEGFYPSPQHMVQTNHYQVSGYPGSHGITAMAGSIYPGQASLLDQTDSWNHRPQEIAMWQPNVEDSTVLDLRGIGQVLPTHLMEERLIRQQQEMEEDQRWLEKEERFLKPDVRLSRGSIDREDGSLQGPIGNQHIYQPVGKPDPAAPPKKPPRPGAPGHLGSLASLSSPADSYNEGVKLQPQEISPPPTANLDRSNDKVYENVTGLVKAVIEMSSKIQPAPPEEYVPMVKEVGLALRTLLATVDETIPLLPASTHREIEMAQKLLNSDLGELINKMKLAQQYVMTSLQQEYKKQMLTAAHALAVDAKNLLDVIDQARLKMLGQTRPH
Method in brief: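 Degradation is assessed by immunoblotting lysates of treated cells. Target bands are quantified by grayscale and normalised to an internal control, so degradation rate equals 100% minus % remaining.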

[1] = target: T2, human Cereblon WT GST-tagged protein (Homo sapiens, UniProt Q96SW2); test: CRBN binding, HTRF (CEREBLON BINDING kit); details: Table II-2, CRBN binding screening, HTRF; for inhibition at 0.5 µM: read-out: Inhibition rate (%) at 0.5µM; for inhibition at 2 µM: read-out: Inhibition rate (%) at 2 µM
T2 construct: purchased CISBIO 64BDCRBNPEH
T2 sequence (Q96SW2 whole entry): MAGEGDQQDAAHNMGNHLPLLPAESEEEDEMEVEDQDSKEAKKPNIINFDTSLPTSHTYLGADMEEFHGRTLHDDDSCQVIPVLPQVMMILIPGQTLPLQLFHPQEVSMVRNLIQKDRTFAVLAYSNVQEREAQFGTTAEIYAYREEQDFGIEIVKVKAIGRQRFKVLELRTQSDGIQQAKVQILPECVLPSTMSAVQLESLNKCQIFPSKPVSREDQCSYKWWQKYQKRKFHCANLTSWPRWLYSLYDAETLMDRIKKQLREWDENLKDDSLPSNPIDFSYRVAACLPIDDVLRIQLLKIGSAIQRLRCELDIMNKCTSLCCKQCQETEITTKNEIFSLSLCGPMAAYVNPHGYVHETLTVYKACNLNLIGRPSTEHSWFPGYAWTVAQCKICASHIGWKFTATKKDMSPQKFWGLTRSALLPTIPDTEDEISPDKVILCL
Method in brief: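 Competitive HTRF: GST-tagged human WT Cereblon mixed with compound, Thalidomide-Re tracer and GST Eu antibody, incubated 3 h at room temperature. Signals read at 620 and 665 nm.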

BXPC-3 = test: CCK-8 proliferation, BXPC-3; assay type: cell-based; details: Homo sapiens, 96 hours, read-out: Inhibitory activity (IC50) on tumor cell proliferation, BXPC-3
Protocol: as §2, §3

SMILES	IC50 (SW620)	IC50 (THP-1)	IC50 (CCRF-CEM)	IC50 (Jurkat)	IC50 (LNcap)	IC50 (H1975)	IC50 (MM.1R)	IC50 (MV-4-11)	inhibition at 0.5 µM [1]	inhibition at 2 µM [1]	IC50 (BXPC-3)	IC50 (TMD8)	IC50 (LS174T)	IC50 (SR)	IC50 (CAL-62)	Degradation of substrate protein FAK (substrate protein remaining %) (FAK)
CC1(C)CCC(CN2CCN(c3ccc(C(=O)NS(=O)(=O)c4ccc(NCC5CCOCC5)c([N+](=O)[O-])c4)c(Oc4cnc5[nH]ccc5c4)c3)CC2)=C(c2ccc(Cl)cc2)C1 [ABT-199, Venetoclax, reference compound]	> 10000 nM	500 to 1000 nM	1000 to 5000 nM	1000 to 5000 nM	> 10000 nM	–	–	–	–	–	–	1000 to 5000 nM	> 10000 nM	–	–	–
CC1(C)CCC(c2ccc(Cl)cc2)=C(CN2CCN(c3ccc(C(=O)NS(=O)(=O)c4ccc(N[C@H](CCN5CCOCC5)CSc5ccccc5)c(S(=O)(=O)C(F)(F)F)c4)cc3)CC2)C1 [ABT-263, Navitoclax, reference compound]	500 to 1000 nM	100 to 500 nM	100 to 500 nM	100 to 500 nM	1000 to 5000 nM	–	–	–	–	–	–	1000 to 5000 nM	500 to 1000 nM	–	–	–
CNC(=O)c1ccc(Nc2ncc(C(F)(F)F)c(NCc3nccnc3N(C)S(C)(=O)=O)n2)cc1 [Defactinib, reference compound]	1000 to 5000 nM	–	1000 to 5000 nM	1000 to 5000 nM	–	1000 to 5000 nM	1000 to 5000 nM	50 to 100 nM	–	–	–	–	–	500 to 1000 nM	5000 to 10000 nM	–
CC1(C)CCC(c2ccc(Cl)cc2)=C(CN2CCN(c3ccc(C(=O)NS(=O)(=O)c4ccc(N[C@H](CCN5CCN(Cc6ccc(C7CCC(=O)NC7=O)cc6)CC5)CSc5ccccc5)c(S(=O)(=O)C(F)(F)F)c4)cc3)CC2)C1 (stereo partly drawn) [GT-04151, 4-(4-((4'-chloro-4,4-dimethyl-3,4,5,6-tetrahydro-[1,1'-biphenyl]-2-yl)methyl)piperazin-1-yl)-N-((4-(((2R)-4-(4-(4-(2,6-dioxopiperidin-3-yl)benzyl)piperazin-1-yl)-1-(phenylthio)butan-2-yl)amino)-3-((trifluoromethyl)sulfonyl)phenyl)sulfonyl)benzamide]	10 to 50 nM	1 to 10 nM	< 1 nM	1 to 10 nM	10 to 50 nM	–	–	–	–	–	–	1 to 10 nM	50 to 100 nM	–	–	–
Cc1ccc(-c2c(C)noc2C)cc1N(CC1CCN(Cc2cccc(N3CCC(=O)NC3=O)c2)CC1)c1ccc(C2(C#N)CC2)cc1 [GT-04842, 1-(4-((5-(3,5-dimethylisoxazol-4-yl)-2-methylphenyl)((1-(3-(2,4-dioxotetrahydropyrimidin-1(2H)-yl)benzyl)piperidin-4-yl)methyl)amino)phenyl)cyclopropane-1-carbonitrile]	–	500 to 1000 nM	–	–	–	–	–	–	–	–	500 to 1000 nM	–	–	–	–	–
CNC(=O)c1ccccc1Nc1cc(Nc2ccc(N3CCOCC3)cc2OC)ncc1C(F)(F)F [PND-1186, reference compound]	–	–	1000 to 5000 nM	1000 to 5000 nM	–	–	500 to 1000 nM	100 to 500 nM	–	–	–	–	–	–	1000 to 5000 nM	–

Second part, led by results:

IC50 (SW620)	IC50 (THP-1)	IC50 (CCRF-CEM)	IC50 (Jurkat)	IC50 (LNcap)	IC50 (H1975)	IC50 (MM.1R)	IC50 (MV-4-11)	inhibition at 0.5 µM [1]	inhibition at 2 µM [1]	IC50 (BXPC-3)	SMILES	IC50 (TMD8)	IC50 (LS174T)	IC50 (SR)	IC50 (CAL-62)	Degradation of substrate protein FAK (substrate protein remaining %) (FAK)
50 to 100 nM	–	500 to 1000 nM	–	–	500 to 1000 nM	500 to 1000 nM	–	–	–	–	CNC(=O)c1ccccc1Nc1cc(Nc2ccc(N3CCC(N4CCN(Cc5ccc(C6CCC(=O)NC6=O)c(F)c5)CC4)CC3)cc2OC)ncc1C(F)(F)F (stereo not drawn) [GT-03600, 2-((2-((4-(4-(4-(4-(2,6-dioxopiperidin-3-yl)-3-fluorobenzyl)piperazin-1-yl)piperidin-1-yl)-2-methoxyphenyl)amino)-5-(trifluoromethyl)pyridin-4-yl)amino)-N-methylbenzamide]	–	–	50 to 100 nM	100 to 500 nM	A (A is defined as 0% ≤ substrate protein remaining % ≤ 80%)
100 to 500 nM	–	100 to 500 nM	–	–	100 to 500 nM	500 to 1000 nM	100 to 500 nM	30 to 40%	40 to 53%	–	CNC(=O)c1ccccc1Nc1cc(Nc2ccc(N3CCC(N(C)Cc4ccc(C5CCC(=O)NC5=O)cc4)CC3)cc2OC)ncc1C(F)(F)F (stereo not drawn) [GT-03733, 2-((2-((4-(4-((4-(2,6-dioxopiperidin-3-yl)benzyl)(methyl)amino)piperidin-1-yl)-2-methoxyphenyl)amino)-5-(trifluoromethyl)pyridin-4-yl)amino)-N-methylbenzamide]	–	–	50 to 100 nM	50 to 100 nM	A (A is defined as 0% ≤ substrate protein remaining % ≤ 80%)
100 to 500 nM	–	100 to 500 nM	–	–	100 to 500 nM	–	100 to 500 nM	–	–	–	CNC(=O)c1ccccc1Nc1cc(Nc2ccc(N3CCC(N(C)Cc4ccc(C5CCC(=O)NC5=O)c(F)c4)CC3)cc2OC)ncc1C(F)(F)F (stereo not drawn) [GT-03734, 2-((2-((4-(4-((4-(2,6-dioxopiperidin-3-yl)-3-fluorobenzyl)(methyl)amino)piperidin-1-yl)-2-methoxyphenyl)amino)-5-(trifluoromethyl)pyridin-4-yl)amino)-N-methylbenzamide]	–	–	50 to 100 nM	50 to 100 nM	A (A is defined as 0% ≤ substrate protein remaining % ≤ 80%)
100 to 500 nM	–	500 to 1000 nM	–	–	–	–	–	10 to 20%	53 to 60%	–	CNC(=O)c1ccccc1Nc1cc(Nc2cc(C)c(N3CCC(N(C)Cc4ccc(C5CCC(=O)NC5=O)cc4)CC3)cc2OC(C)C)ncc1C(F)(F)F (stereo not drawn) [GT-04094, 2-((2-((4-(4-((4-(2,6-dioxopiperidin-3-yl)benzyl)(methyl)amino)piperidin-1-yl)-2-isopropoxy-5-methylphenyl)amino)-5-(trifluoromethyl)pyridin-4-yl)amino)-N-methylbenzamide]	–	–	–	500 to 1000 nM	A (A is defined as 0% ≤ substrate protein remaining % ≤ 80%)

Source: patent publication EP4678638A1, “NEW E3 UBIQUITIN LIGASE LIGAND, PROTEIN DEGRADATION AGENT AND USE THEREOF” (priority 2023, dated 2024)
